Earlier results on two molecules are cited in US20110059177A1, “Cardioplegia Solution for Cardiac Surgery” (priority 2008, published 2011).

In data set [1] the test system is common carotid artery IMT (intima-media thickness). Particulars: patients with coronary artery disease, 6 months.

Structures are written as SMILES.

In the case of `CCOC(=O)C1=C(C)NC(C)=C(C(=O)OCC)C1c1ccccc1/C=C/C(=O)OC(C)(C)C` [Lacidipine], in data set [1], the “common carotid artery IMT (intima-media thickness)” value is given as “significant reduction” and the markers of inflammation entry is “decrease”.
Regarding `CN(C)c1ccc(O)c2c1C[C@H]1C[C@H]3[C@H](N(C)C)C(O)=C(C(N)=O)C(=O)[C@@]3(O)C(O)=C1C2=O` [Minocycline], under “150 mg of minocycline vs 250 mg of tetracycline at 24-48 hours”, the “activity level relative to tetracycline” value is 16 times. Besides, the “serum levels relative to most other tetracyclines” value (result of long half-life) is given as 2-4 times.
